Laboratory results as given in US20200331882A1, “COMPOUND FOR SIMULTANEOUSLY INHIBITING LSD1 AND HDAC TARGETS AND APPLICATION THEREOF” (PEKING UNIVERSITY SHENZHEN GRADUATE SCHOOL, priority 2018, published 2020).
Where two headings read alike, the source gives them in different places.

Tests used:
Assay type in all cases: cell-based
MCF7 = assay: CellTiter-Glo cell proliferation; details: CTG, 72 hours; for % inhibition at top conc.: highest concentration 10/50 μM
Description: (§1) The effect of the present invention compound ZZY-003 on the cell proliferation of 50 cell lines was evaluated by CellTiter-Glo (CTG) method, and the 50% inhibitory concentration was calculated by detecting the cell viability after treatment with different drug concentrations. The cells were resuscitated and cultured in their respective culture media. The cells in logarithmic growth phase were harvested and the cells were counted by cell counter. The cell viability was detected by Trypan blue exclusion method to ensure that the cell line viability was more than 96%. The cell concentration was adjusted by diluting with the culture medium, and 90 μL cell suspension was added to the 96-well cell plate (including the cell control T0 on the day of drug treatment) to make the cell density reach the specified concentration. The cells in the 96-well plate were cultured overnight at 37° C., 5% CO2 and 95% humidity. 10 μL culture medium was added to the control cell culture plate. CellTiter-Glo reagent and cell culture plate were placed at room temperature to balance for 30 minutes. The same volume of CellTiter-Glo reagent was added to each well. Vibrate on the orbital shaker for 2 min to make the cells fully lytic. The cell culture plate was placed at room temperature to balance for 10 minutes. Chemiluminescence values were read with EnVision. The storage solution was formed by dissolving the tested compound with the corresponding solvent and diluted in gradient to obtain 10 times working concentration solution, and 10 times solution of positive drug was also prepared. 10 μL drug solution was added to each well in the 96-well plate in which the cells were inoculated, and each cell concentration was provided with three duplicate wells. The highest concentration of the tested compound was 10/50 μM, 9 concentrations and 3.16 times dilution. The cells in the 96-well plate added with drug were cultured at 37° C., 5% CO2 and 95% humidity for 72 hours. CellTiter-Glo reagent and drug-treated cell culture plate were placed at room temperature to balance for 30 minutes. The same volume of CellTiter-Glo reagent was added to each well. Vibrate on the orbital shaker for 2 minutes to make the cells fully lytic. The cell culture plate was placed at room temperature to balance for 10 minutes. Chemiluminescence values were read with EnVision. Data processing: […] Cell survival rate (%)=(Lum drug to be detected−Lum culture medium control)/(Lum cell control−Lum culture medium control)×100%; Lum cell control−Lum culture medium control was set to 100%, LumMedium control value was set to 0%;

T84 = assay: CellTiter-Glo cell proliferation; details: CTG, 72 hours; for % inhibition at top conc.: highest concentration 10/50 μM; for IC50: read-out: Absolute IC50
Description: as §1

K-562 = assay: CellTiter-Glo cell proliferation; details: 72 hours; for % inhibition at top conc.: highest concentration 10/50 μM; for IC50: read-out: Absolute IC50
Description: as §1

HCT-116 = assay: CellTiter-Glo cell proliferation; details: CTG, 72 hours; for % inhibition at top conc.: highest concentration 10/50 μM; for IC50: read-out: Absolute IC50
Description: as §1

PC-3 = assay: CellTiter-Glo cell proliferation; details: CTG, 72 hours; for % inhibition at top conc.: highest concentration 10/50 μM; for IC50: read-out: Absolute IC50
Description: as §1

NCI-H82 = assay: CellTiter-Glo cell proliferation; details: CTG, 72 hours; for % inhibition at top conc.: highest concentration 10/50 μM; for IC50: read-out: Absolute IC50
Description: as §1

786-O = assay: CellTiter-Glo cell proliferation; details: 72 hours; for % inhibition at top conc.: highest concentration 10/50 μM; for IC50: read-out: Absolute IC50
Description: as §1

MOLM-13 = assay: CellTiter-Glo cell proliferation; details: CTG, 72 hours; for % inhibition at top conc.: highest concentration 10/50 μM; for IC50: read-out: Absolute IC50
Description: as §1

Hep G2 = assay: CellTiter-Glo cell proliferation; details: 72 hours; for % inhibition at top conc.: highest concentration 10/50 μM; for IC50: read-out: Absolute IC50
Description: as §1

BT474 = assay: CellTiter-Glo cell proliferation; details: 72 hours; for % inhibition at top conc.: highest concentration 10/50 μM; for IC50: read-out: Absolute IC50
Description: as §1

LP-1 = assay: CellTiter-Glo cell proliferation; details: CTG, 72 hours; for % inhibition at top conc.: highest concentration 10/50 μM; for IC50: read-out: Absolute IC50
Description: as §1

Jurkat clone E6-1 = assay: CellTiter-Glo cell proliferation; details: CTG, 72 hours; for % inhibition at top conc.: highest concentration 10/50 μM; for IC50: read-out: Absolute IC50
Description: as §1

OPM2 = assay: CellTiter-Glo cell proliferation; details: 72 hours; for % inhibition at top conc.: highest concentration 10/50 μM; for IC50: read-out: Absolute IC50
Description: as §1

OE19 = assay: CellTiter-Glo cell proliferation; details: CTG, 72 hours; for % inhibition at top conc.: highest concentration 10/50 μM; for IC50: read-out: Absolute IC50
Description: as §1

5637 = assay: CellTiter-Glo cell proliferation; details: CTG, 72 hours; for % inhibition at top conc.: highest concentration 10/50 μM; for IC50: read-out: Absolute IC50
Description: as §1

SK-N-FI = assay: CellTiter-Glo cell proliferation; details: CTG, 72 hours; for % inhibition at top conc.: highest concentration 10/50 μM; for IC50: read-out: Absolute IC50
Description: as §1

SU-DHL-6 = assay: CellTiter-Glo cell proliferation; details: CTG, 72 hours; for % inhibition at top conc.: highest concentration 10/50 μM; for IC50: read-out: Absolute IC50
Description: as §1

HL-60 = assay: CellTiter-Glo cell proliferation; details: CTG, 72 hours; for % inhibition at top conc.: highest concentration 10/50 μM; for IC50: read-out: Absolute IC50
Description: as §1

HuCCT1 = assay: CellTiter-Glo cell proliferation; details: 72 hours; for % inhibition at top conc.: highest concentration 10/50 μM; for IC50: read-out: Absolute IC50
Description: as §1

AN3 CA = assay: CellTiter-Glo cell proliferation; details: CTG, 72 hours; for % inhibition at top conc.: highest concentration 10/50 μM; for IC50: read-out: Absolute IC50
Description: as §1

U266B1 = assay: CellTiter-Glo cell proliferation; details: CTG, 72 hours; for % inhibition at top conc.: highest concentration 10/50 μM; for IC50: read-out: Absolute IC50
Description: as §1

[1] = tested on: human breast cancer cell line BT-474; assay: MTT tumor cell proliferation; details: Homo sapiens, 72 h
Text: (§2) MTT colorimetric method was used to detect the inhibitory activity of a series of compounds (i.e. ZZY-001 to ZZY-016, a total of 16 kinds) of the embodiment of the present invention on the proliferation of tumor cells in vitro. The full name of MTT is 3-(4,5-dimethyl-2-thiazolyl)-2,5-diphenyl-2-H-tetrazolium romide, which is a yellow dye also known as thiazolyl blue. […] DMSO can dissolve Formazan deposited in cells and the absorbance value can be measured with a enzyme marker at a wavelength of 490 nm. In a certain range of cell number, the production of Formazan is proportional to the number of cells, so the number of living cells can be inferred according to the measured OD value.
(§3) The cell suspension was inoculated on a 96-well plate at 100 μl/well and cultured in a constant temperature CO2 incubator for 24 h. Then the tested drugs were added, 100 μl/well, and cultured for 72 h. MTT was added to a 96-well plate, 20 μl/well, and reacted for 4 h in the incubator. Absorb the supernatant, add DMSO, 150 μl/well and shake for 10 min on the plate shaker. The optical density (OD value) of each well was measured by enzyme marker at the wavelength of 490 nm.

[2] = tested on: mouse breast cancer cell 4T1; assay: MTT tumor cell proliferation; details: Mus musculus, 72 h
Text: as §2, §3

N.N.[Cl][Pt][Cl] [Cisplatin, reference compound]
% inhibition at top conc. (MCF7): 90.30% | % inhibition at top conc. (T84): 87.03% | IC50 (T84): 5050 nM | % inhibition at top conc. (K-562; CTG): 97.45% | IC50 (K-562; CTG): 6070 nM | % inhibition at top conc. (HCT-116): 95.72% | IC50 (HCT-116): 3150 nM | % inhibition at top conc. (PC-3): 85.52% | IC50 (PC-3): 5340 nM | % inhibition at top conc. (NCI-H82): 99.63% | IC50 (NCI-H82): 4000 nM | % inhibition at top conc. (786-O; CTG): 97.88% | IC50 (786-O; CTG): 2110 nM | % inhibition at top conc. (MOLM-13): 99.99% | IC50 (MOLM-13): 770 nM | % inhibition at top conc. (Hep G2; CTG): 90.70% | IC50 (Hep G2; CTG): 5860 nM | % inhibition at top conc. (BT474; CTG): 67.02% | IC50 (BT474; CTG): 66100 nM | % inhibition at top conc. (LP-1): 99.89% | IC50 (LP-1): 8680 nM | % inhibition at top conc. (Jurkat clone E6-1): 99.96% | IC50 (Jurkat clone E6-1): 840 nM | % inhibition at top conc. (OPM2; CTG): 99.97% | IC50 (OPM2; CTG): 3670 nM | % inhibition at top conc. (OE19): 62.99% | IC50 (OE19): 25800 nM | % inhibition at top conc. 5637: 99.05% | IC50 5637: 2600 nM | % inhibition at top conc. (SK-N-FI): 99.81% | IC50 (SK-N-FI): 10200 nM | % inhibition at top conc. (SU-DHL-6): 99.95% | IC50 (SU-DHL-6): 5650 nM | % inhibition at top conc. (HL-60): 99.99% | IC50 (HL-60): 1560 nM | % inhibition at top conc. (HuCCT1; CTG): 89.54% | IC50 (HuCCT1; CTG): 11300 nM | % inhibition at top conc. (AN3 CA): 99.96% | IC50 (AN3 CA): 4430 nM | % inhibition at top conc. (U266B1): 98.85% | IC50 (U266B1): 14300 nM

Cc1ccc(C(=O)Nc2cc(N3CCNCC3)ccc2-c2ccc(/C=C/C(=O)NO)cc2C)cc1.Cl [ZZY-003]
IC50 [1]: 1860 nM | IC50 [2]: 2380 nM | % inhibition at top conc. (MCF7): 96.26% | IC50 (MCF7; Homo sapiens, read-out: Absolute IC50): 1610 nM | % inhibition at top conc. (T84): 98.70% | IC50 (T84; Homo sapiens): 9950 nM | % inhibition at top conc. (K-562; CTG): 99.85% | IC50 (K-562; Homo sapiens, K562, CTG): 460 nM | % inhibition at top conc. (HCT-116): 99.94% | IC50 (HCT-116; Homo sapiens): 430 nM | % inhibition at top conc. (PC-3): 96.56% | IC50 (PC-3; Homo sapiens): 1380 nM | % inhibition at top conc. (NCI-H82): 99.94% | IC50 (NCI-H82; Homo sapiens): 370 nM | % inhibition at top conc. (786-O; CTG): 99.96% | IC50 (786-O; Homo sapiens, 786-0, CTG): 3910 nM | % inhibition at top conc. (MOLM-13): 99.99% | IC50 (MOLM-13; Homo sapiens): 210 nM | % inhibition at top conc. (Hep G2; CTG): 99.98% | IC50 (Hep G2; Homo sapiens, HepG2, CTG): 840 nM | % inhibition at top conc. (BT474; CTG): 99.86% | IC50 (BT474; Homo sapiens, BT-474, CTG): 510 nM | % inhibition at top conc. (LP-1): 98.94% | IC50 (LP-1; Homo sapiens): 260 nM | % inhibition at top conc. (Jurkat clone E6-1): 99.61% | IC50 (Jurkat clone E6-1; Homo sapiens): 480 nM | % inhibition at top conc. (OPM2; CTG): 98.99% | IC50 (OPM2; Homo sapiens, OPM-2, CTG): 350 nM | % inhibition at top conc. (OE19): 98.95% | IC50 (OE19; Homo sapiens): 780 nM | % inhibition at top conc. 5637: 99.95% | IC50 5637: 820 nM | % inhibition at top conc. (SK-N-FI): 99.95% | IC50 (SK-N-FI; Homo sapiens): 3170 nM | % inhibition at top conc. (SU-DHL-6): 99.91% | IC50 (SU-DHL-6; Homo sapiens): 300 nM | % inhibition at top conc. (HL-60): 99.93% | IC50 (HL-60; Homo sapiens): 310 nM | % inhibition at top conc. (HuCCT1; CTG): 99.88% | IC50 (HuCCT1; Homo sapiens, HuCCT-1, CTG): 1350 nM | % inhibition at top conc. (AN3 CA): 99.92% | IC50 (AN3 CA; Homo sapiens): 1270 nM | % inhibition at top conc. (U266B1): 98.03% | IC50 (U266B1): 640 nM
